# Reference: patent US20050130925A1, “Method and composition for enhancing PGE1 production in vascular endothelial and smooth muscle cells” (The Board of Regents of the University of Texas System, priority 2003, published 2005)
# Where “and” joins values, the source holds several entries; their conditions need not be identical. Equal entries are not always repeated.
# Tests used:
# [1] = clinical use; cited from earlier work
# [2] = tested on: HAEC; assay: Western blot of COX-1 and COX-2 expression in HAEC; type: cell-based, human; details: normal HAEC, 10 ng/ml for 24 hour
# [3] = tested on: HCASMC; assay: Western blot of COX-1 and COX-2 expression in HCASMC; type: cell-based, human; details: normal HCASMC, 10 ng/ml for 24 hour
# [4] = tested on: human aortic endothelial cells (HAECs); assay: Prostaglandin production in HAECs with/without fatty acids and AdCOX-1 transfection, EIA (Example II); type: cell-based; details: for enhancement of PGI2 production: HAECs, fatty acid stimulation (Discussion); for PGE1/PGE2 ratio: fatty acid-stimulated naïve HAECs; for PGE1 production / PGE2 production / PGI2 production: naïve (nontransfected) HAECs, 20 μM fatty acid, 45 minutes
# [5] = tested on: human coronary artery smooth muscle cells (HCASMCs); assay: Prostaglandin production in HCASMCs with/without fatty acids and AdCOX-1 transfection, EIA (Example II); type: cell-based; details: for PGE1/PGE2 ratio: fatty acid-stimulated naïve HCASMCs; for increase of PGE1 production by stimulation: naive HCASMCs vs no stimulation; for PGE1 production / PGE2 production / PGI2 production: naïve (nontransfected) HCASMCs, 20 μM fatty acid, 45 minutes
# [6] = tested on: balloon-injured carotid arteries of New Zealand White rabbits; type: in vivo, New Zealand White rabbit; details: no vector (PBS), 20 μM fatty acid stimulation
# Protocol: Balloon injury and local delivery of the COX-1 gene to carotid arteries of New Zealand White (NZW) rabbits were done according to a protocol approved by the animal committee at the University of Texas Houston Health Science Center. As described previously^31, rabbit anesthesia was performed prior to each surgery. In brief, a no. 4 catheter introducer was introduced into the right femoral artery of anesthetized rabbits. Heparin at a dose of 150 units/kg was then administered to prevent arterial thrombosis during angioplasty. A balloon catheter (2.5×20 mm, Baxter Healthcare Corporation) was inserted into the femoral introducer and advanced to the right carotid artery with the assist of a guide wire under fluoroscopy. Balloon angioplasty was performed using 5 inflations to 8 atm for 30 second each time. One minute reperfusion was allowed between inflations. After angioplasty, the balloon was retracted 15 mm, and the proximal end of the damaged artery was ligated over the tip of the deflated angioplasty catheter with 2-0 silk over umbilical tape, to prevent further injury. All blood was removed from the damaged artery by repeated flushing with saline through the wire port of the angioplasty catheter. Then the distal portion of the damaged artery was ligated. After removing the remaining saline, 1×10^10 PFU/ml AdCOX, Adnull or 1 ml of PBS were gradually introduced into the isolated artery, respectively. After incubating the virus in the artery for 30 min, the artery was flushed to remove virus or PBS and washed with saline. Finally, all incisions were repaired and the rabbits were monitored until they had recovered from anesthesia. Upon completing of surgery, the cut regions of rabbit were repaired and rabbits were recovered.
# Balloon injury and local delivery of the COX-1 gene to carotid arteries of NZW rabbits (n=24) were performed as described above. Eight rabbits were treated with AdCOX, and a like number were respectively treated with Adnull and PBS.
# Three days after local gene delivery, balloon-injured rabbits were sacrificed, and their carotid arteries were harvested as 2-cm-long artery rings. Each artery ring was cut open to expose the lumen and then into 6 small pieces. The pieces were washed 3 times with Dulbecco's modified Eagle's medium (DME; Invitrogen) and incubated with DMEM supplemented with 20 μM AA or DGLA and 2% FBS at 37° C. for 45 minutes. In each treatment group, 4 rabbits provided injured arteries for AA stimulation and 4 provided them for DGLA stimulation. Supernatants were collected and used for prostaglandin assays as described above. Each arterial piece was then dried and weighed.
# [7] = naïve HCASMCs vs no stimulation
Compound,enhancement of PGI2 production [4] [%],PGE1/PGE2 ratio [4],increase of PGI2 production by stimulation (in words) ([4]; naive HAECs vs no stimulation),PGE1 production [4] [ng/10^6 cells],PGE2 production [4] [ng/10^6 cells],PGI2 production [4] [ng/10^6 cells],PGE1/PGE2 ratio [5],increase of PGE1 production by stimulation [5] [fold],PGE1 production [5] [ng/10^6 cells],PGE2 production [5] [ng/10^6 cells],PGI2 production [5] [ng/10^6 cells],PGE1 production [6] [pg/mg arterial tissue],PGE2 production [6] [pg/mg arterial tissue],PGI2 production [6] [pg/mg arterial tissue],further results
CCCCC(C)(O)C/C=C/[C@H]1[C@H](O)CC(=O)[C@@H]1CCCCCCC(=O)OC (mixture of isomers) [Misoprostol],,,,,,,,,,,,,,,"adverse side effects (including diarrhea and abdominal pain), patients affected [1]: 14-40 % of patients"
"IL-1β: interleukin-1β, used to induce COX-2 in normal cells",,,,,,,,,,,,,,,COX-2 induction (immunoblot) [2]: capable of prompting COX-2 induction; COX-2 induction (immunoblot) [3]: capable of prompting COX-2 induction
"CCCCC/C=C\C/C=C\C/C=C\C/C=C\CCCC(=O)O [AA, arachidonic acid]",25,0.16,one third,1.10 ± 0.41,6.17 ± 0.83,2.70 ± 0.13,0.27,> 2,14.04 ± 1.5,51.8 ± 2.46,37.12 ± 2.54,31 ± 19,74 ± 42,432 ± 135,"PGE1 production, times lower than in DGLA-stimulated counterparts ([4]; AA-stimulated naïve HAECs): > 4 times; increase of PGE2 production by stimulation ([4]; naïve HAECs vs no stimulation): ~2 fold; suppression of PGE1 production by stimulation ([4]; naïve HAECs vs no stimulation): ~24%; PGE1 production, times lower than in DGLA-stimulated counterparts ([5]; AA-stimulated naïve HCASMCs): > 2 times; increase of PGE2 production by stimulation [5, 7]: ~2 fold; increase of PGI2 production by stimulation [5, 7]: ~3 fold"
"CCCCC/C=C\C/C=C\C/C=C\CCCCCCC(=O)O [DGLA, dihommo-γ-linolenic acid]",5,3.22 and 3,only slightly,5.00 ± 0.51,1.55 ± 0.37,2.15 ± 0.33,1.46 and 1.5,> 4,32.34 ± 2.41,22.05 ± 1.45,9.30 ± 1.09,47 ± 3.90,51 ± 20,443 ± 201,"increase of PGE1 production by stimulation ([4]; naive HAECs vs no stimulation): > 3 fold; suppression of PGE2 production by stimulation ([4]; naïve HAECs vs no stimulation): 35-50%; lowering of PGI2 production by stimulation [5, 7]: 28%; suppression of PGE2 production by stimulation [5, 7]: 35-50%"
